US20140171358A1, “ANTIMICROBIAL COMPOSITIONS COMPRISING DGLA AND NEOMYCIN SULFATE AND METHODS OF USE THEREOF” (Dignity Sciences Limited, priority 2012, published 2014)

Legend:
Type in all cases: cell-based
P. acnes = assay: agar dilution method: growth index and MIC on P. acnes (single compounds and combinations); design: key to Growth Index Plate 1 / Growth Index Plate 2 / Growth Index Plate 3 / Growth Index Avg: +++: confluent growth (comparable to control); ++: less confluent growth; +: marked reduction in growth to multiple tiny, single colonies; −: no growth present
Protocol: Several compounds including fatty acids such as DGLA, 15-OHEPA, and 15-HETrE were tested to determine their capacity to inhibit the growth of P. acnes. In an exemplary method, an agar dilution method was used to determine the minimum inhibitory concentration (MIC) of each tested compound. Briefly, the agar dilution method involved preparing a series of concentrations of each compound (e.g., nicotinamide, benzoyl peroxide, adapalene, metronidazole, DGLA, 15-OHEPA, and 15-HETrE) in a Reinforced Clostridial Agar (RCA) media that facilitates growth of P. acnes under anaerobic conditions. An inoculum of P. acnes was prepared by incubation of P. acnes for approximately seven days at 35-37° C. to achieve a ≧1.0 OD600 inoculum of P. acnes in RCM broth. A portion of this inoculum was then added to the surface of each plate as a 10 μL spot and incubated at 35-37° C. for 72 hours or more. Growth of P. acnes was then observed and compared to control plates in which no compound has been added, and positive inhibition plates prepared with erythromycin. […] The growth of P. acnes in the presence of nicotinamide, benzoyl peroxide, adapalene, metronidazole, DGLA, 15-OHEPA, and 15-HETrE was determined with varying concentrations of the compound (see, Table 2). Next, the MIC was determined as the concentration at which a marked reduction (+) occurs in the appearance of growth on the test plate (as per Clinical and Laboratory Standards Institute M11-A7). The compounds tested singly in Example 1 were tested in combination with one another to determine the capacity of the combination to inhibit the growth of P. acnes. In an exemplary method, the MIC was determined for each of the combination as described in Example 1. Briefly, test combinations included DGLA with nicotinamide, benzoyl peroxide, adapalene, or metronidazole; 15-HETrE with nicotinamide, benzoyl peroxide, adapalene, or metronidazole; and 15-OHEPA with nicotinamide, benzoyl peroxide, adapalene, or metronidazole. The tables below show the growth of P. acnes in the presence of 0.4 or 1.0 mg/mL DGLA with varying concentrations of nicotinamide, benzoyl peroxide, adapalene, or metronidazole (Table 3); the growth of P. acnes in the presence of 0.01 or 0.05 mg/mL 15-HETrE with varying concentrations of nicotinamide, benzoyl peroxide, adapalene, or metronidazole (Table 5); and the growth of P. acnes in the presence of 0.5 or 0.1 mg/mL 15-OHEPA with varying concentrations of nicotinamide, benzoyl peroxide, adapalene, or metronidazole (Table 7).

S. aureus = assay: paper disc corrected zone of inhibition (CZOI) on Mueller Hinton agar
Protocol: (§1) The compounds tested in Example 1 were tested to determine their capacity to inhibit the growth of a variety of Gram-negative bacteria, Gram-positive bactgeria, fungi and yeast. In an exemplary method, Mueller Hinton agar plates were streaked with 500 μL of a 10^5 colony-forming units/mL culture and allowed to dry for at least one minute. A sterile paper disc (6 mm diameter) was then placed in the middle of each plate using sterile forceps. Twenty microliters of a solution of a known concentration of a test compound in filter-sterilized 95% ethanol were pipetted onto each test plate. Two streaked plates served as positive inhibitory controls and contained 6 mm sterile paper discs with standard tetracycline solutions. Two additional plates served as negative inhibition controls and each contained 6 mm sterile paper discs with 20 μL of filter-sterilized 95% ethanol. Two more plates served as positive growth controls and contained no paper disc or added antibacterial agent. The plates were incubated at 32.5±2° C. for 24±4 hours, after which the corrected zone of inhibition (“CZOI”) was determined as follows: For each plate, the length Y2 and width X2 of the test sample (paper disc) and length Y1 and width X1 of the clear zone were measured (FIG. 1). The CZOI was calculated from these values as shown by the equation below: [formula]

C. striatum = assay: as above
Protocol: as §1

C. albicans = assay: as above
Protocol: as §1

P. aeroginosa = assay: as above
Protocol: as §1

S. epidermidis = assay: as above
Protocol: as §1

E. coli = assay: as above
Protocol: as §1

A. brasiliensis = assay: as above
Protocol: as §1

E. faecalis = assay: as above
Protocol: as §1

K. pneumoniae = assay: as above
Protocol: as §1

CCCCCC(O)/C=C/C=C\C/C=C\CCCCCCC(=O)O (stereo not drawn) [15-HETrE, 15-Hydroxy-eicosa-8(Z),11(Z),13 (E)-trienoic acid]
effect on growth of P. acnes on its own (P. acnes; 0.01 mg/ml): no effect on its own | Growth Index Avg (P. acnes; varied compound 0.00001 mg/mL): +++ | Growth Index Plate 1 (P. acnes; varied compound 0.00001 mg/mL): +++ | Growth Index Plate 2 (P. acnes; varied compound 0.00001 mg/mL): +++ | Growth Index Plate 3 (P. acnes; varied compound 0.00001 mg/mL): +++ | Growth Index Avg (P. acnes; varied compound 0.0001 mg/mL): +++ | Growth Index Plate 1 (P. acnes; varied compound 0.0001 mg/mL): +++ | Growth Index Plate 2 (P. acnes; varied compound 0.0001 mg/mL): +++ | Growth Index Plate 3 (P. acnes; varied compound 0.0001 mg/mL): +++ | Growth Index Avg (P. acnes; varied compound 0.001 mg/mL): +++ | Growth Index Plate 1 (P. acnes; varied compound 0.001 mg/mL): +++ | Growth Index Plate 2 (P. acnes; varied compound 0.001 mg/mL): +++ | Growth Index Plate 3 (P. acnes; varied compound 0.001 mg/mL): +++ | Growth Index Avg (P. acnes; varied compound 0.01 mg/mL): ++ | Growth Index Plate 1 (P. acnes; varied compound 0.01 mg/mL): ++ | Growth Index Plate 2 (P. acnes; varied compound 0.01 mg/mL): +++ | Growth Index Plate 3 (P. acnes; varied compound 0.01 mg/mL): ++ | Growth Index Avg (P. acnes; varied compound 0.05 mg/mL): − | Growth Index Plate 1 (P. acnes; varied compound 0.05 mg/mL): − | Growth Index Plate 2 (P. acnes; varied compound 0.05 mg/mL): − | Growth Index Plate 3 (P. acnes; varied compound 0.05 mg/mL): − | Average CZOI (S. aureus; 0.005 mg/mL): 2 mm | Average CZOI (S. aureus; 0.01 mg/mL): 2.5 mm | Average CZOI (S. aureus; 0.05 mg/mL): 0.75 mm | Average CZOI (S. aureus; 0.1 mg/mL): 1.75 mm | Average CZOI (S. aureus; 0.5 mg/mL): 1 mm | Lowest Concentration With Observed Inhibition (S. aureus; S. aureus): 0.005 mg/mL | Most Effective Concentration Observed (S. aureus; S. aureus): 0.01 mg/mL | Average CZOI (C. striatum; 0.005 mg/mL): 4 mm | Average CZOI (C. striatum; 0.01 mg/mL): 3.25 mm | Average CZOI (C. striatum; 0.05 mg/mL): 2.25 mm | Average CZOI (C. striatum; 0.1 mg/mL): 3.25 mm | Average CZOI (C. striatum; 0.5 mg/mL): 1.5 mm | Lowest Concentration With Observed Inhibition (C. striatum; C. striatum): 0.005 mg/mL | Most Effective Concentration Observed (C. striatum; C. striatum): 0.05 mg/mL | Average CZOI (C. albicans; 0.005 mg/mL): 2 mm | Average CZOI (C. albicans; 0.01 mg/mL): 1.75 mm | Average CZOI (C. albicans; 0.05 mg/mL): 1.25 mm | Average CZOI (C. albicans; 0.1 mg/mL): 1.5 mm | Average CZOI (C. albicans; 0.5 mg/mL): 1.25 mm | Lowest Concentration With Observed Inhibition (C. albicans; C. albicans): 0.005 mg/mL | Most Effective Concentration Observed (C. albicans; C. albicans): 0.005 mg/mL | Average CZOI (P. aeroginosa; 0.005 mg/mL): 1.5 mm | Average CZOI (P. aeroginosa; 0.01 mg/mL): 1.5 mm | Average CZOI (P. aeroginosa; 0.05 mg/mL): 1 mm | Average CZOI (P. aeroginosa; 0.1 mg/mL): 1.5 mm | Average CZOI (P. aeroginosa; 0.5 mg/mL): 1 mm | Lowest Concentration With Observed Inhibition (P. aeroginosa; P. aeroginosa): 0.005 mg/mL | Most Effective Concentration Observed (P. aeroginosa; P. aeroginosa): 0.005 mg/mL | Average CZOI (S. epidermidis; 0.005 mg/mL): 1.75 mm | Average CZOI (S. epidermidis; 0.01 mg/mL): 3 mm | Average CZOI (S. epidermidis; 0.05 mg/mL): 1 mm | Average CZOI (S. epidermidis; 0.1 mg/mL): 1 mm | Average CZOI (S. epidermidis; 0.5 mg/mL): 1.75 mm | Lowest Concentration With Observed Inhibition (S. epidermidis; S. epidermidis): 0.005 mg/mL | Most Effective Concentration Observed (S. epidermidis; S. epidermidis): 0.01 mg/mL | Average CZOI (E. coli; 0.005 mg/mL): 1.5 mm | Average CZOI (E. coli; 0.01 mg/mL): 2 mm | Average CZOI (E. coli; 0.05 mg/mL): 1 mm | Average CZOI (E. coli; 0.1 mg/mL): 1.25 mm | Average CZOI (E. coli; 0.5 mg/mL): 1 mm | Lowest Concentration With Observed Inhibition (E. coli; E. coli): 0.005 mg/mL | Most Effective Concentration Observed (E. coli; E. coli): 0.01 mg/mL | Average CZOI (A. brasiliensis; 0.005 mg/mL): 1.75 mm | Average CZOI (A. brasiliensis; 0.01 mg/mL): 1 mm | Average CZOI (A. brasiliensis; 0.05 mg/mL): 1.25 mm | Average CZOI (A. brasiliensis; 0.1 mg/mL): 2.25 mm | Average CZOI (A. brasiliensis; 0.5 mg/mL): 3 mm | Lowest Concentration With Observed Inhibition (A. brasiliensis; A. brasiliensis): 0.005 mg/mL | Most Effective Concentration Observed (A. brasiliensis; A. brasiliensis): 0.5 mg/mL | Average CZOI (E. faecalis; 0.005 mg/mL): 3.75 mm | Average CZOI (E. faecalis; 0.01 mg/mL): 5.75 mm | Average CZOI (E. faecalis; 0.05 mg/mL): 3.75 mm | Average CZOI (E. faecalis; 0.1 mg/mL): 3.25 mm | Average CZOI (E. faecalis; 0.5 mg/mL): 2.75 mm | Lowest Concentration With Observed Inhibition (E. faecalis; E. faecalis): 0.005 mg/mL | Most Effective Concentration Observed (E. faecalis; E. faecalis): 0.01 mg/mL | Average CZOI (K. pneumoniae; 0.005 mg/mL): 2.5 mm | Average CZOI (K. pneumoniae; 0.01 mg/mL): 2 mm | Average CZOI (K. pneumoniae; 0.05 mg/mL): 1 mm | Average CZOI (K. pneumoniae; 0.1 mg/mL): 1.5 mm | Average CZOI (K. pneumoniae; 0.5 mg/mL): 1 mm | Lowest Concentration With Observed Inhibition (K. pneumoniae; K. pneumoniae): 0.005 mg/mL | Most Effective Concentration Observed (K. pneumoniae; K. pneumoniae): 0.005 mg/mL
